Molecular target: T1, HRH4 (Homo sapiens, UniProt Q9H3N8)
T1 construct: purchased Promega (in-house HiBiT-GPCR construct library, NanoBRET)
Experiment: NanoBRET screen HiBiT-HRH4 in HEK293
Assay type: binding
Description: Each tracer candidate was screened across the entire library of HiBiT-GPCR constructs using NanoBRET as the detection modality. As depicted in Figure 4A, the specificity of interactions was evaluated through decrease in BRET due to competitive displacement of a bound tracer by excess parental compound. Each tracer was analyzed for binding to each HiBiT-GPCR fusion in the absence and in the presence of competing parental compound. Briefly, HEK293 cells were transfected with HiBiT-GPCR constructs diluted into promoterless DNA to reduce expression and maximize translocation to the cell surface. Each tracer candidate was then screened at concentrations of 1 μM and 0.1 μM across cells expressing these fusions. Cells were treated for 1.5 h with tracer either alone or in the presence of 20 μM competing parental compound (i.e., control). BRET was measured upon addition of purified LgBiT and subsequent complementation with HiBiT genetically fused to a GPCR. The specificity of interactions was assessed through a decrease in BRET signal due to competitive displacement of the bound tracer. To further gauge the robustness of these interactions, the fold response over the control (i.e., BRETtracer/BRETcontrol) was calculated. We chose a 1.5-fold response, which translates to ≥7-fold signal over noise as the minimal threshold required to score an interaction as positive. […]. Below we highlight the screening results obtained for our exemplary fluorescent tracers based on Clozapine, Amitriptyline and AZD1283.
HiBiT-GPCR DNA constructs were diluted in 10 mM Tris pH 8 to a final concentration of 0.01 μg/μL, arrayed in 96-well plates and stored at −20 °C. For transfection, HEK293 cells were suspended in Opti-MEM (without phenol red) supplemented with 2% fetal bovine serum (Seradigm) and 100 units/mL penicillin–streptomycin (Gibco) at a final concentration of 220,000 cells/mL and dispensed into white 96-well plates at 90 μL/well. Subsequent transfections and screens were carried using an Agilent Bravo Automated Liquid Handling Platform. First, the 96-well HiBiT DNA arrays were diluted 25-fold in Opti-MEM (without serum or phenol red) to a final concentration of 0.0004 μg/μL and 20 μL of the diluted DNAs were transferred into new 96-well plates. Next, promoterless carrier DNA (1 μg/μL) was diluted 25-fold (0.04 μg/μL) and then dispensed into the diluted arrays at 20 μL/well. Following brief mixing, Viafect transfection reagent (Promega) diluted 16-fold into Opti-MEM was dispensed into the plates at 40 μL/well. After mixing by pipetting, plates were incubated for 10 min on the pipetting station deck. The DNA-transfection reagent complexes were then added to plates containing cells. To facilitate the screen, 10 μL of DNA-transfection reagent complexes were added in duplicates to the top 4 and bottom 4 rows, resulting in two identical 48-well arrays per plate. Plates with transfected cells were incubated for 18–20 h at 37 °C/5% CO2. A screen of each tracer across the entire library using two different concentrations requires duplicate plates of transfected cells. Depending on the number of tracers being screened, transfections can be scaled up using the same ratios. The next day, for each tracer, four 20× screening solutions in tracer dilution buffer (Promega) were prepared: two duplicates at final concentration of 20 μM and two duplicates at a final concentration of 2 μM. A competing unmodified compound was added to one of each duplicate at a final concentration of 400 μM. The four resulting solutions were diluted 4-fold in Opti-MEM without serum or phenol red to generate 5× solutions (5 µM and 0.5 µM tracer +/− 100 μM competing compound). To screen the library, a BioTek MultiFlo FX liquid dispenser was used to dispense 22.5 µL of tracer solution to the top 4 rows and 22.5 µL tracer + competing compound solution to the 4 bottom rows. Plates were briefly mixed on an orbital shaker and incubated for 1.5 h at room temperature. […]

T1 sequence (Q9H3N8 whole entry): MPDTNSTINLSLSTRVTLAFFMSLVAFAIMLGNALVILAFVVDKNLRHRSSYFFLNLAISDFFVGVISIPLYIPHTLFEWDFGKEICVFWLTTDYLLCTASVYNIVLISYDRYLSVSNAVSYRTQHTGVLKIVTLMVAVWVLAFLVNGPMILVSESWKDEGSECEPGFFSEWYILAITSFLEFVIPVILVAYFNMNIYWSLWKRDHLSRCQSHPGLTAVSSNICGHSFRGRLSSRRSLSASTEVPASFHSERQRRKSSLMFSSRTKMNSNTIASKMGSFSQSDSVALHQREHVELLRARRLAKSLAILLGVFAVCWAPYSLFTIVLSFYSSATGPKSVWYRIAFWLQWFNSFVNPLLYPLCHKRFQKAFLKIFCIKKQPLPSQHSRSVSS

Row | SMILES | NanoBRET Fold Response (HRH4, tracer 0.1μM) | NanoBRET Fold Response (HRH4, tracer 1μM) | also measured
1 | O=C(CCc1ccc2n1[B-](F)(F)[N+]1=C(c3ccc[nH]3)C=CC1=C2)NCc1ccc(C(=O)NCCOCCC(=O)N[C@@H]2CC[C@@]3(O)[C@H]4Cc5ccc(O)c6c5[C@@]3(CCN4CC3CC3)[C@H]2O6)cc1 [Naltrexone-3-NB590] | 0.75 | 0.91 | –
2 | CN1CCN(C2=Nc3cc(Cl)ccc3N(CC(=O)NCCOCCOCCOCCOCCNC(=O)CCc3ccc4n3[B-](F)(F)[N+]3=C(c5ccc[nH]5)C=CC3=C4)c3ccccc32)CC1 [Clozapine-c-2-NB590] | – | – | NanoBRET Fold Response (HRH4, 0.1μM tracer): 1.04; NanoBRET Fold Response (HRH4, 1μM tracer): 0.97
3 | O=C(CCOCCOCCOCCOCCNC(=O)CCc1ccc2n1[B-](F)(F)[N+]1=C(c3ccc[nH]3)C=CC1=C2)NCCCN1CCN(C2=Nc3cc(Cl)ccc3Nc3ccccc32)CC1 [Clozapine-a-2-NB590] | – | – | NanoBRET Fold Response (HRH4, 0.1μM tracer): 1.00; NanoBRET Fold Response (HRH4, 1μM tracer): 1.07
4 | CCOC(=O)c1cc(C#N)c(N2CCC(C(=O)NS(=O)(=O)Cc3ccccc3/C=C/C(=O)NCCNC(=O)CCc3ccc4n3[B-](F)(F)[N+]3=C(c5ccc[nH]5)C=CC3=C4)CC2)nc1C [AZD1283-1-NB590] | – | – | NanoBRET Fold Response (HRH4, 0.1μM): 1.16; NanoBRET Fold Response (HRH4, 1μM): 1.10
5 | COc1ccc2[nH]c(-c3ccc(CNC(=O)CCOCCOCCOCCOCCNC(=O)CCc4ccc5n4[B-](F)(F)[N+]4=C(c6ccc[nH]6)C=CC4=C5)cc3)c(CCNC(C)=O)c2n1 [AzomelatoninICO9-2-NB590] | – | – | NanoBRET Fold Response (0.1μM tracer): 0.80; NanoBRET Fold Response (1μM tracer): 1.14
6 | CCCn1c(=O)c2[nH]c(-c3ccc(OCC(=O)NCCNC(=O)CCOCCNC(=O)c4ccc(CNC(=O)CCc5ccc6n5[B-](F)(F)[N+]5=C(c7ccc[nH]7)C=CC5=C6)cc4)cc3)nc2n(CCC)c1=O [XAC-3-NB590] | 1.37 | 1.05 | –
7 | COc1ccccc1N1CCN(CCCCN2C(=O)c3ccc(CNC(=O)CCOCCNC(=O)c4ccc(CNC(=O)CCc5ccc6n5[B-](F)(F)[N+]5=C(c7ccc[nH]7)C=CC5=C6)cc4)cc3C2=O)CC1 [NAN-190-3-NB590] | 0.93 | 0.93 | –
8 | CN(CCC=C1c2ccccc2CCc2ccccc21)C(=O)CCOCCOCCOCCOCCNC(=O)CCc1ccc2n1[B-](F)(F)[N+]1=C(c3ccc[nH]3)C=CC1=C2 [Amitriptyline-e-2-NB590] | – | – | NanoBRET Fold Response (tracer at 1μM): 0.92
9 | O=C(CCc1ccc2n1[B-](F)(F)[N+]1=C(c3ccc[nH]3)C=CC1=C2)NCc1ccc(C(=O)NCCOCCOCCNCC(O)COc2cccc3ccccc23)cc1 (stereo not shown) [Propranolol-3-NB590] | – | – | NanoBRET Fold Response (HRH4, 0.1μM): 0.92; NanoBRET Fold Response (HRH4, 1μM): 0.97
10 | COc1ccc2c(n1)c(CCNC(C)=O)cn2CCNC(=O)CCc1ccc2n1[B-](F)(F)[N+]1=C(c3ccc[nH]3)C=CC1=C2 [Azamelatonin-1-NB590] | – | – | NanoBRET Fold Response (0.1μM tracer): 0.92; NanoBRET Fold Response (1μM tracer): 0.92
11 | O=C(CCOCCOCCOCCOCCNC(=O)CCc1ccc2n1[B-](F)(F)[N+]1=C(c3ccc[nH]3)C=CC1=C2)NCCCN1CCN(C2=Nc3ccccc3Oc3ccc(Cl)cc32)CC1 [Loxapine-a-2-NB590] | 0.96 | 1.02 | –
12 | COc1ccccc1N1CCN(CCCCN2C(=O)c3ccc(CNC(=O)CCOCCOCCOCCOCCNC(=O)CCc4ccc5n4[B-](F)(F)[N+]4=C(c6ccc[nH]6)C=CC4=C5)cc3C2=O)CC1 [NAN-190-2-NB590] | 0.96 | – | –
13 | CC(C)N(CC[C@H](c1ccccc1)c1cc(CCNC(=O)c2ccc(CNC(=O)CCc3ccc4n3[B-](F)(F)[N+]3=C(c5ccc[nH]5)C=CC3=C4)cc2)ccc1O)C(C)C [Tolterodine-BZ-NB590] | 0.82 | 0.88 | –
14 | O=C(CCc1ccc2n1[B-](F)(F)[N+]1=C(c3ccc[nH]3)C=CC1=C2)NCCOCCOCCNC(=O)OCCOCCN1CCN(C2=Nc3ccccc3Sc3ccccc32)CC1 [Quetiapine-a-2-NB590] | 1.01 | 0.96 | –
15 | CN1CCN(C2=Nc3cc(Cl)ccc3Nc3ccc(CNC(=O)CCOCCOCCOCCOCCNC(=O)CCc4ccc5n4[B-](F)(F)[N+]4=C(c6ccc[nH]6)C=CC4=C5)cc32)CC1 [Clozapine-b-2-NB590] | – | – | NanoBRET Fold Response (HRH4, 0.1μM tracer): 1.01; NanoBRET Fold Response (HRH4, 1μM tracer): 0.81
16 | CC(C)N(CC[C@H](c1ccccc1)c1cc(CCNC(=O)CCOCCOCCOCCOCCNC(=O)CCc2ccc3n2[B-](F)(F)[N+]2=C(c4ccc[nH]4)C=CC2=C3)ccc1O)C(C)C [Tolterodine-2-NB590] | 1.05 | 1.03 | –
17 | CN(C)CCC=C1c2ccccc2CCc2ccc(C(=O)NCCNC(=O)CCOCCOCCOCCOCCNC(=O)CCc3ccc4n3[B-](F)(F)[N+]3=C(c5ccc[nH]5)C=CC3=C4)cc21 [Amitriptyline-a-2-NB590] | – | – | NanoBRET Fold Response (tracer at 0.1μM): 1.23; NanoBRET Fold Response (tracer at 1μM): 1.04
18 | Cc1cc2c(s1)Nc1ccccc1N=C2N1CCN(CCCNC(=O)CCOCCOCCOCCOCCNC(=O)CCc2ccc3n2[B-](F)(F)[N+]2=C(c4ccc[nH]4)C=CC2=C3)CC1 [Olanzapine-a-2-NB590] | 1.01 | 0.94 | –
19 | N#CN=C(NCCCOc1cccc(CN2CCCCC2)c1)NCCNC(=O)CCOCCOCCOCCOCCNC(=O)CCc1ccc2n1[B-](F)(F)[N+]1=C(c3ccc[nH]3)C=CC1=C2 [Aminopotentidine-2-NB590] | 0.91 | 1.02 | –
20 | Cc1nc2n(c(=O)c1CCN1CCC(c3noc4cc(F)ccc34)CC1)CCCC2OC(=O)NCCOCCOCCOCCOCCNC(=O)CCc1ccc2n1[B-](F)(F)[N+]1=C(c3ccc[nH]3)C=CC1=C2 (stereo not shown) [Risperidone-2-NB590] | 1.03 | 1.07 | –
21 | CN(C)CCC=C1c2ccccc2CCc2ccc(C(=O)NCCNC(=O)CCOCCOCCOCCOCCNC(=O)CCc3ccc4n3[B-](F)(F)[N+]3=C(c5ccc[nH]5)C=CC3=C4)cc21 [Amitriptyline-b-2-NB590] | – | – | NanoBRET Fold Response (tracer at 0.1μM, listed as amitriptyline-b-2-NB590): 0.97; NanoBRET Fold Response (tracer at 1μM, listed as amitriptyline-b-2-NB590): 1.13
